Laboratory results as given in patent US9078712B2, “Preformed drug-eluting device to be affixed to an anterior spinal plate” (Warsaw Orthopedic, Inc., priority 2009, dated 2015).

Test: Effect of autoclave sterilization on final drug concentration in silicone (FIG. 11)
Assay type: physicochemical
Conditions: starting concentration about 0.0738 wt %, autoclave about 30 minutes
Description: FIG. 11 illustrates the effect of sterilization on the final drug concentration, showing the degradation rate versus autoclave time, for example, with a starting concentration of about 0.0738 wt % rifampin in the silicone and running the autoclave about 30 minutes will result in a final concentration of about 0.054 wt % rifampin in the silicone sleeve.
The term “weight percent” or “wt %” means the ratio of the drug weight to the weight of the biocompatible matrix, e.g., the silicone after sterilization, for example, an initial concentration of rifampin of about 0.0738 wt % with about a 30 minute autoclave time will result in a final wt % of about 0.054 in the sterilized product.

Q: For `CO[C@H]1/C=C/O[C@@]2(C)Oc3c(C)c(O)c4c(O)c(c(/C=N/N5CCN(C)CC5)c(O)c4c3C2=O)NC(=O)/C(C)=C\C=C\[C@H](C)[C@H](O)[C@@H](C)[C@@H](O)[C@@H](C)[C@H](OC(C)=O)[C@@H]1C` [rifampin], which “final concentration of rifampin in the silicone after autoclave sterilization” value is on record?
A: about 0.054 wt %
